Assays:
Conditions in all cases: Compound concentration 1000.0 nM
[1] = biological target: Tyrosine-protein kinase Lck (Homo sapiens) (UniProt P06239)
[2] = biological target: MAP kinase-interacting serine/threonine-protein kinase 2 (Homo sapiens) (UniProt Q9HBH9)
[3] = biological target: Tyrosine-protein kinase ZAP-70 (Homo sapiens) (UniProt P43403)
[4] = biological target: Phosphatidylinositol 3-kinase catalytic subunit type 3 (Homo sapiens) (UniProt Q8NEB9)
[5] = biological target: Mitogen-activated protein kinase 1 (Homo sapiens) (UniProt P28482)
[6] = biological target: Phosphatidylinositol 5-phosphate 4-kinase type-2 gamma (Homo sapiens) (UniProt Q8TBX8)
[7] = system: Phosphatidylinositol 4,5-bisphosphate 3-kinase catalytic subunit alpha isoform (Homo sapiens), P42336 [H1047L]
[8] = biological target: Receptor-interacting serine/threonine-protein kinase 2 (Homo sapiens) (UniProt O43353)
[9] = biological target: Cyclin-dependent kinase 15 (Homo sapiens) (UniProt Q96Q40)
[10] = biological target: STE20/SPS1-related proline-alanine-rich protein kinase (Homo sapiens) (UniProt Q9UEW8)
[11] = biological target: Receptor tyrosine-protein kinase erbB-3 (Homo sapiens) (UniProt P21860)
[12] = biological target: Protein kinase C iota type (Homo sapiens) (UniProt P41743)
[13] = biological target: Serine/threonine-protein kinase Sgk3 (Homo sapiens) (UniProt Q96BR1)
[14] = system: Mast/stem cell growth factor receptor Kit (Homo sapiens), P10721 [V559D,V654A]
Chain of Mast/stem cell growth factor receptor Kit (Homo sapiens), P10721 [V559D,V654A] (P10721 whole entry V559D/V654A): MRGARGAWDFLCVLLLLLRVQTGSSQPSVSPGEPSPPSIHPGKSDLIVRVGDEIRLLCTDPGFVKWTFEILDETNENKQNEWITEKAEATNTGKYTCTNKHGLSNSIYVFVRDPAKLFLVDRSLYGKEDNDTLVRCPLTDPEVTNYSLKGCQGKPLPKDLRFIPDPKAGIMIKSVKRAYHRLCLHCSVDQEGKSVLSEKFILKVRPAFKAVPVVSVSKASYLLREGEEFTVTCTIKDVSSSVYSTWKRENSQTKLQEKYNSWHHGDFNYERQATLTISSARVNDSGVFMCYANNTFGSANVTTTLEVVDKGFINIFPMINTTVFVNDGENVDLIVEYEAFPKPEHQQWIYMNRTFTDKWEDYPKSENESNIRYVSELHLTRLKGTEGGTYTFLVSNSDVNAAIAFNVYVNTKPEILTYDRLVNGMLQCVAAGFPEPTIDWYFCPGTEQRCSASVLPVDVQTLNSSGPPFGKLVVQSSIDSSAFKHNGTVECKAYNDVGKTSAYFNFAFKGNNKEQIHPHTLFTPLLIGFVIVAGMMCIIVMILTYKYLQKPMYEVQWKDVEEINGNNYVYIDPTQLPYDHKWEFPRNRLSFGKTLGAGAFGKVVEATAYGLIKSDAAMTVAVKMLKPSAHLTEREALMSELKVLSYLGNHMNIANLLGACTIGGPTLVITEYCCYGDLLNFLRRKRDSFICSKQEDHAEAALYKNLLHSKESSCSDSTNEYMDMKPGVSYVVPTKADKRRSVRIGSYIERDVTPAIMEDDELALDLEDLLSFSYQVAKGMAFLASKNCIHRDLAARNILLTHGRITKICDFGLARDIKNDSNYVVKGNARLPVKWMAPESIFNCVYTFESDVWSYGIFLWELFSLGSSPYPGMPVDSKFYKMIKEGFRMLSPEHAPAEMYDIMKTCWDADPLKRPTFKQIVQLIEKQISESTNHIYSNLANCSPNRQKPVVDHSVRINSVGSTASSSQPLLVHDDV

[15] = biological target: Phosphatidylinositol 5-phosphate 4-kinase type-2 beta (Homo sapiens) (UniProt P78356)
[16] = biological target: Serine/threonine-protein kinase PAK 6 (Homo sapiens) (UniProt Q9NQU5)
[17] = biological target: cAMP-dependent protein kinase catalytic subunit alpha (Homo sapiens) (UniProt P17612)
[18] = biological target: Aurora kinase C (Homo sapiens) (UniProt Q9UQB9)
[19] = biological target: Cyclin-dependent kinase 9 (Homo sapiens) (UniProt P50750)
Chain of Cyclin-dependent kinase 9 (Homo sapiens) (P50750 whole entry): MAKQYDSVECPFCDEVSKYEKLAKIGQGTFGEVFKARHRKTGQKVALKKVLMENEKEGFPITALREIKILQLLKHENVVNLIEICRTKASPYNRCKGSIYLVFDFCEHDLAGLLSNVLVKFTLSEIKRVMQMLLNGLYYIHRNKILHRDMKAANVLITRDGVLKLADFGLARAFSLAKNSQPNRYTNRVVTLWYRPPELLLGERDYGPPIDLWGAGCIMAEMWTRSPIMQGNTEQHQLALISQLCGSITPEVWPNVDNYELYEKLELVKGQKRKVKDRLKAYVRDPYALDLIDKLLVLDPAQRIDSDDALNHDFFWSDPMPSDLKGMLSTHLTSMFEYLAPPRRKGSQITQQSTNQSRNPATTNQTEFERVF

[20] = biological target: cAMP-dependent protein kinase catalytic subunit PRKX (Homo sapiens) (UniProt P51817)
[21] = biological target: Cyclin-dependent kinase 5 (Homo sapiens) (UniProt Q00535)
[22] = biological target: Dual specificity testis-specific protein kinase 1 (Homo sapiens) (UniProt Q15569)
[23] = system: Epidermal growth factor receptor (Homo sapiens), P00533 [L858R]
[24] = biological target: Serine/threonine-protein kinase 38 (Homo sapiens) (UniProt Q15208)
Chain of Serine/threonine-protein kinase 38 (Homo sapiens) (Q15208 2-465 limits assumed): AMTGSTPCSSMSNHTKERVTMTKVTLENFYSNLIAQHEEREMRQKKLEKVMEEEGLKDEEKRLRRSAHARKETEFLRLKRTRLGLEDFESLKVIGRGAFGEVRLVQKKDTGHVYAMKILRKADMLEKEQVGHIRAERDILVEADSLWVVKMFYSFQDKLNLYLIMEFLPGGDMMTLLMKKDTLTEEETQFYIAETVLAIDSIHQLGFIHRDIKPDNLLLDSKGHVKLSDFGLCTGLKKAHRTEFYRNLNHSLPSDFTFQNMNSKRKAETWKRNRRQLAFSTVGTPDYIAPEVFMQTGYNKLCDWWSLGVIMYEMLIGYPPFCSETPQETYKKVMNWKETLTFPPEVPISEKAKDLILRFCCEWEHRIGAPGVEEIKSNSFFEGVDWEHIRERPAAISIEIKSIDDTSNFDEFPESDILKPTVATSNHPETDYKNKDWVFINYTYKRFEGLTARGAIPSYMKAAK

[25] = biological target: Myosin-IIIa (Homo sapiens) (UniProt Q8NEV4)
[26] = biological target: Phosphatidylinositol 4-phosphate 3-kinase C2 domain-containing subunit beta (Homo sapiens) (UniProt O00750)
Chain of Phosphatidylinositol 4-phosphate 3-kinase C2 domain-containing subunit beta (Homo sapiens) (O00750 whole entry, the tested form may be a part): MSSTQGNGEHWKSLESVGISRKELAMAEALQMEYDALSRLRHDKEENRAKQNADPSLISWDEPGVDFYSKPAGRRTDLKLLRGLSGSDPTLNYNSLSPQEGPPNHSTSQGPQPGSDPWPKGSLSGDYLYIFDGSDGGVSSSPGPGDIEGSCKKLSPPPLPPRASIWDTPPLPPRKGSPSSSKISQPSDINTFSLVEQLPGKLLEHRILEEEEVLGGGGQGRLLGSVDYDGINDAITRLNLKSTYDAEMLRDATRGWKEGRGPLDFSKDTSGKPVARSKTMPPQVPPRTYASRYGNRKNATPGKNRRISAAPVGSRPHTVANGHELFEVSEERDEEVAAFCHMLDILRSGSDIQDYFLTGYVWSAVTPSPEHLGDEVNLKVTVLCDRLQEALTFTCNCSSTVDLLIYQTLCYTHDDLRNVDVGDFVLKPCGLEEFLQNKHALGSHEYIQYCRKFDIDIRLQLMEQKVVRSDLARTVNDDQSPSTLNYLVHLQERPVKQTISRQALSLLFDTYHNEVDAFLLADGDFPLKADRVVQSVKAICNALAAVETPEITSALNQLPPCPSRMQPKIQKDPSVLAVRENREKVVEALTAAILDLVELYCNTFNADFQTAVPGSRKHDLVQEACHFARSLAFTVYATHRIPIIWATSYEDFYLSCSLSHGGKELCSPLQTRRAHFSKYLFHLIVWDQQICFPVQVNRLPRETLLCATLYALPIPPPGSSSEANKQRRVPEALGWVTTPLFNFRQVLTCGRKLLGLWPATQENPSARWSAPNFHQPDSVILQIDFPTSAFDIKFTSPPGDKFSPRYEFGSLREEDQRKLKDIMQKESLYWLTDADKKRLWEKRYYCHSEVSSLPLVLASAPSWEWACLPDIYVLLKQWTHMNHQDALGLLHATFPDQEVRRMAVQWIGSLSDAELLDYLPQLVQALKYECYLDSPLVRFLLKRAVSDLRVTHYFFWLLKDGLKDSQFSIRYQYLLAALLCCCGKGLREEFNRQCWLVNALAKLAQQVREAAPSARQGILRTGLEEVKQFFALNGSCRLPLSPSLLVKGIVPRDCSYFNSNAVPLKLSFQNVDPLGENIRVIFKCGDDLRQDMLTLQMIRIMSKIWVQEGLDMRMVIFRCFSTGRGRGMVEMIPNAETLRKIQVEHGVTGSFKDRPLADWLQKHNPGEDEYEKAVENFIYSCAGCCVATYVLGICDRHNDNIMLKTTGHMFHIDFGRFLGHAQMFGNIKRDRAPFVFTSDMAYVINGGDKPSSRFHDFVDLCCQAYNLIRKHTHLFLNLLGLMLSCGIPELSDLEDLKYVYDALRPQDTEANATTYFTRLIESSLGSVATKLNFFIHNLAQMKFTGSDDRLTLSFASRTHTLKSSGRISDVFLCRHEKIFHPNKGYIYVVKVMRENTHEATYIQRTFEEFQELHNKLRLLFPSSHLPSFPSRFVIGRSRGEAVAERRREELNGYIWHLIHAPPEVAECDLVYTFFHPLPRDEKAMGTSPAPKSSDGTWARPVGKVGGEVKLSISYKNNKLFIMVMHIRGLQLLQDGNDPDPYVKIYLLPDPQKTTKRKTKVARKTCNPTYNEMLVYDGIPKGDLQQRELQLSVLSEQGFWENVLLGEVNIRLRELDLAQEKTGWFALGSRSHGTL

[27] = biological target: Atypical kinase COQ8B, mitochondrial (Homo sapiens) (UniProt Q96D53)
[28] = biological target: Dual specificity mitogen-activated protein kinase kinase 1 (Homo sapiens) (UniProt Q02750)
[29] = biological target: Serine/threonine-protein kinase Nek11 (Homo sapiens) (UniProt Q8NG66)
[30] = biological target: Cyclin-dependent kinase 2 (Homo sapiens) (UniProt P24941)
[31] = biological target: Serine/threonine-protein kinase TAO2 (Homo sapiens) (UniProt Q9UL54)
[32] = biological target: Serine/threonine-protein kinase Chk1 (Homo sapiens) (UniProt O14757)
[33] = system: Tyrosine-protein kinase ABL1 (Homo sapiens), P00519 [F317I]
[34] = biological target: Receptor-interacting serine/threonine-protein kinase 4 (Homo sapiens) (UniProt P57078)
[35] = biological target: Serine/threonine-protein kinase MARK1 (Homo sapiens) (UniProt Q9P0L2)
[36] = biological target: Maternal embryonic leucine zipper kinase (Homo sapiens) (UniProt Q14680)
Chain of Maternal embryonic leucine zipper kinase (Homo sapiens) (Q14680 whole entry, looked up): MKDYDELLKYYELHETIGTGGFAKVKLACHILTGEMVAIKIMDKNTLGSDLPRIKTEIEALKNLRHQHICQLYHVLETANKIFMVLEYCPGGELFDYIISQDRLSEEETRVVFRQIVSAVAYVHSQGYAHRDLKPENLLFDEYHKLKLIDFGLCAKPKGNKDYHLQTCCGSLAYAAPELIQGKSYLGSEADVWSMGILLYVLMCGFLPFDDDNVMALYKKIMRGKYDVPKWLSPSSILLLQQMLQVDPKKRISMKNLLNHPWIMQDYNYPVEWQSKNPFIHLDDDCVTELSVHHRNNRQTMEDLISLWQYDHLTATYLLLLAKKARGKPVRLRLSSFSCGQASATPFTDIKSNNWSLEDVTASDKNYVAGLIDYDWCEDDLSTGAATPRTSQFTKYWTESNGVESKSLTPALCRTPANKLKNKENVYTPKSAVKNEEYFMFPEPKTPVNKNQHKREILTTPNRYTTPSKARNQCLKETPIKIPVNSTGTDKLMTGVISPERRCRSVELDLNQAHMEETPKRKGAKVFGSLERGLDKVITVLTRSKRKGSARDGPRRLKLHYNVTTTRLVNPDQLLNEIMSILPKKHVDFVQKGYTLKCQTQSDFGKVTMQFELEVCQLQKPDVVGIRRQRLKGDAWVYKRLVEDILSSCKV

[37] = biological target: Serine/threonine-protein kinase D2 (Homo sapiens) (UniProt Q9BZL6)
[38] = biological target: NT-3 growth factor receptor (Homo sapiens) (UniProt Q16288)
[39] = system: Phosphatidylinositol 4,5-bisphosphate 3-kinase catalytic subunit alpha isoform (Homo sapiens), P42336 [M1043I]
[40] = system: Tyrosine-protein kinase ABL1 (Homo sapiens), P00519 [Y253F]
[41] = biological target: MAP kinase-activated protein kinase 5 (Homo sapiens) (UniProt Q8IW41)
[42] = biological target: Mitotic checkpoint serine/threonine-protein kinase BUB1 (Homo sapiens) (UniProt O43683)
[43] = biological target: Cyclin-dependent kinase 14 (Homo sapiens) (UniProt O94921)
[44] = biological target: Dual specificity tyrosine-phosphorylation-regulated kinase 1B (Homo sapiens) (UniProt Q9Y463)
[45] = biological target: Dual serine/threonine and tyrosine protein kinase (Homo sapiens) (UniProt Q6XUX3)

Chain of Phosphatidylinositol 3-kinase catalytic subunit type 3 (Homo sapiens) (Q8NEB9 whole entry): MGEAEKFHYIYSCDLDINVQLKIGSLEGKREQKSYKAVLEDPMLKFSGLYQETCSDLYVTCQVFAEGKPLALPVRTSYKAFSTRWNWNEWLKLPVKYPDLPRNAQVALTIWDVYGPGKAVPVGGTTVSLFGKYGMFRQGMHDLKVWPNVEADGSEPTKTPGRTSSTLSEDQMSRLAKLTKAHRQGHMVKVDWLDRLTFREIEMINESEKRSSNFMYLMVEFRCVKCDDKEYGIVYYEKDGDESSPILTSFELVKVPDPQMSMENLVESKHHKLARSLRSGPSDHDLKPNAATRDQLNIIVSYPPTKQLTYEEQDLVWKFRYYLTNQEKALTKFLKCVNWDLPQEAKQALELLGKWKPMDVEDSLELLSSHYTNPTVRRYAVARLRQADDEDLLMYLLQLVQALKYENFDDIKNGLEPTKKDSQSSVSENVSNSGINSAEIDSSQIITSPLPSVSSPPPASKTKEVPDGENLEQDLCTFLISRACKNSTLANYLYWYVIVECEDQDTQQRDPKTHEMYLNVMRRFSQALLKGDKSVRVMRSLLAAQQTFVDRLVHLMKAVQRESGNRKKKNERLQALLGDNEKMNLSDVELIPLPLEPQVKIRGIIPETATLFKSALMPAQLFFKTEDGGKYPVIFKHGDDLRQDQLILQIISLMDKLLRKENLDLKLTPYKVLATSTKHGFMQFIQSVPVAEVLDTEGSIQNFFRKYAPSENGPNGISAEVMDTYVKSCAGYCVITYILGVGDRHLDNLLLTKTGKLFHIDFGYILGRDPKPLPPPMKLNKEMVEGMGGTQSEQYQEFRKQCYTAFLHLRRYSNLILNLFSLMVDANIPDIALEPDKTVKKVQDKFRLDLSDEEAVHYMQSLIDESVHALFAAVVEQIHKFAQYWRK

CCC(=N\O)/C(C)=C/c1ccc(F)cc1 [A-079]
residual activity [1]: 82% | residual activity [2]: 100% | residual activity [3]: 96% | residual activity [4]: 83% | residual activity [5]: 71% | residual activity [6]: 83% | residual activity [7]: 100% | residual activity [8]: 91% | residual activity [9]: 80% | residual activity [10]: 94% | residual activity [11]: 100% | residual activity [12]: 74% | residual activity [13]: 81% | residual activity [14]: 73% | residual activity [15]: 91% | residual activity [16]: 100% | residual activity [17]: 78% | residual activity [18]: 80% | residual activity [19]: 93% | residual activity [20]: 96% | residual activity [21]: 68% | residual activity [22]: 82% | residual activity [23]: 65% | residual activity [24]: 94% | residual activity [25]: 100% | residual activity [26]: 92% | residual activity [27]: 84% | residual activity [28]: 95% | residual activity [29]: 100% | residual activity [30]: 82% | residual activity [31]: 94% | residual activity [32]: 83% | residual activity [33]: 77% | residual activity [34]: 83% | residual activity [35]: 100% | residual activity [36]: 96% | residual activity [37]: 99% | residual activity [38]: 88% | residual activity [39]: 88% | residual activity [40]: 80% | residual activity [41]: 91% | residual activity [42]: 88% | residual activity [43]: 91% | residual activity [44]: 57% | residual activity [45]: 66%

CCC(=N\O)/C(C)=C/c1ccc(F)c(C)c1 [A-226]
residual activity [1]: 87% | residual activity [2]: 100% | residual activity [3]: 38% | residual activity [4]: 100% | residual activity [5]: 92% | residual activity [6]: 85% | residual activity [7]: 100% | residual activity [8]: 65% | residual activity [9]: 100% | residual activity [10]: 100% | residual activity [11]: 76% | residual activity [12]: 99% | residual activity [13]: 100% | residual activity [14]: 100% | residual activity [15]: 74% | residual activity [16]: 100% | residual activity [17]: 100% | residual activity [18]: 100% | residual activity [19]: 96% | residual activity [20]: 94% | residual activity [21]: 86% | residual activity [22]: 73% | residual activity [23]: 100% | residual activity [24]: 95% | residual activity [25]: 94% | residual activity [26]: 55% | residual activity [27]: 83% | residual activity [28]: 95% | residual activity [29]: 100% | residual activity [30]: 96% | residual activity [31]: 100% | residual activity [32]: 83% | residual activity [33]: 100% | residual activity [34]: 100% | residual activity [35]: 99% | residual activity [36]: 100% | residual activity [37]: 100% | residual activity [38]: 100% | residual activity [39]: 71% | residual activity [40]: 100% | residual activity [41]: 100% | residual activity [42]: 100% | residual activity [43]: 92% | residual activity [44]: 100% | residual activity [45]: 95%
